Reference: patent US7173053B2, “N-formyl hydroxylamine derivatives as inhibitors of bacterial polypeptide formylase for treating microbial infections” (British Biotech Pharmaceuticals Limited, priority 2000, dated 2007)
Converted amounts (≈) assume the structure as drawn.

Legend:
S. aureus ATCC 29213 = assay: agar plate dilution MIC, S. aureus ATCC 29213; format: cell-based; settings: Staphylococcus aureus, ATCC29213, Iso-Sensitest agar pH 7.2, 18 to 24 hr incubation
Experimental: (§1) The susceptibilities of two strains of bacteria to the compounds of Example 1–4 were determined by a standard agar plate dilution method following recommendations in British Society for Antimicrobial Chemotherapy Working Party. 1991, “A guide to sensitivity testing British Society for Antimicrobial Chemotherapy, London, United Kingdom”. Briefly, Iso-Sensitest agar (pH 7.2: Oxoid, United Kingdom) is employed, supplemented with 5% horse blood (Oxoid) and 20 μg of NAD (Sigma) per ml are added to support growth of fastidious bacteria. The inoculum used is approximately 10^4 colony forming units of each isolate contained in a volume of 1 μl. Plates are incubated 18 to 24 hr in air, or for fasidious bacteria an atmosphere enriched with 4–6% carbon dioxide at 35° C. The MIC is determined as the lowest concentration of an antimicrobial tested that inhibited growth of the inoculum, disregarding a single persisting colony or faint haze caused by the inoculation.

S. pneumoniae ATCC 49619 = assay: agar plate dilution MIC, S. pneumoniae ATCC 49619; format: cell-based; settings: Streptococcus pneumoniae, ATCC49619, Iso-Sensitest agar pH 7.2, 18 to 24 hr incubation
Experimental: as §1

| MIC (S. aureus ATCC 29213) [µg/mL] | MIC (S. pneumoniae ATCC 49619) [µg/mL] | SMILES |
| --- | --- | --- |
| 8 (≈ 20 µM) | 2 (≈ 4.99 µM) | CC(C)(C)[C@H](NC(=O)[C@H](CC1CCCC1)CN(O)C=O)c1nc2ccccc2[nH]1 [Example 3, N-[1-(1H-Benzoimidazol-2-yl)-2,2-dimethyl-propyl]-2-cyclopentylmethyl-3-(formyl-hydroxy-amino)-propionamide] |
| 8 (≈ 21.4 µM) | 4 (≈ 10.7 µM) | CCCC[C@H](CN(O)C=O)C(=O)N[C@H](c1nc2ccccc2[nH]1)C(C)(C)C [Example 4, 2-[(Formyl-hydroxy-amino)-methyl]-hexanoic acid [1-(1H-benzoimidazol-2-yl)-2,2-dimethyl-propyl]-amide] |
| 8 (≈ 18.4 µM) | 2 (≈ 4.6 µM) | CC(C)(C)[C@H](NC(=O)[C@H](CC1CCCC1)CN(O)C=O)c1nc2cc(Cl)ccc2[nH]1 [Example 2, N-[1-(5-Chloro-1H-benzoimidazol-2-yl)-2,2-dimethyl-propyl]-2-cyclopentylmethyl-3-(formyl-hydroxy-amino)-propionamide] |
| 4 (≈ 9.56 µM) | 2 (≈ 4.78 µM) | CC(C)(C)[C@H](NC(=O)[C@H](CC1CCCC1)CN(O)C=O)c1nc2cc(F)ccc2[nH]1 [Example 1, 2R-Cyclopentylmethyl-N-[1S-(5-fluoro-1H-benzoimidazol-2-yl)-2,2-dimethyl-propyl]-3-(formyl-hydroxy-amino)-propionamide] |
